Reference: patent US20230203041A1, “ANTAGONISTS OF THE ADENOSINE A2A RECEPTOR” (AdoRx Therapeutics Limited, priority 2020, published 2023)
Structures can show the parent of a compound that is named as a salt.

Columns and labels:
[1] = molecular target: T1, human Adenosine A3 receptor (Homo sapiens, UniProt P0DMS8); assay: Adenosine receptor TR-FRET binding assay (CA200645 displacement), A3
T1 sequence (P0DMS8 1-318): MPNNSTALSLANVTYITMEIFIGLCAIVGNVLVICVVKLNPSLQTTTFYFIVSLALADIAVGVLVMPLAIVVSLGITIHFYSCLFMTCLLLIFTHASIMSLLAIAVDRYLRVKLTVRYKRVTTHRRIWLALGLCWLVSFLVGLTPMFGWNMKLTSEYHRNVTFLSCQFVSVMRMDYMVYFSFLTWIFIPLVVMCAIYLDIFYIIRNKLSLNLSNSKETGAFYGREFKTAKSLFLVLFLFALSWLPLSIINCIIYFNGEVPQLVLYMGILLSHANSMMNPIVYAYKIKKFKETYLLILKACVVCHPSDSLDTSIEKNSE

[2] = molecular target: T2, human Adenosine A1 receptor (Homo sapiens, UniProt P30542); assay: Adenosine receptor TR-FRET binding assay (CA200645 displacement), A1
T2 sequence (P30542 1-326): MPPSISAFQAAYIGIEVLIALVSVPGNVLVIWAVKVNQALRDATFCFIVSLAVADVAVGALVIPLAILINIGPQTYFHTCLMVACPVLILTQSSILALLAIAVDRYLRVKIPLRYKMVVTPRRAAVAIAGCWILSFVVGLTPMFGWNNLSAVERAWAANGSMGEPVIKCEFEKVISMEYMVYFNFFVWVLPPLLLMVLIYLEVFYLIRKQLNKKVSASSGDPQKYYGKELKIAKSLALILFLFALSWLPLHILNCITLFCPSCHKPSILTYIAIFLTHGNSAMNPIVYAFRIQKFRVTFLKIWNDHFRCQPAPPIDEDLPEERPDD

[3] = molecular target: T3, human Adenosine A2a receptor (Homo sapiens, UniProt P29274); assay: Adenosine receptor TR-FRET binding assay (CA200645 displacement), A2a; conditions: 100 nM CA200645, CHO cell membranes, 2 hours at room temperature
T3 construct: expressed in transfected cells; host or cells: CHO cell membranes
Method: All FRET binding experiments were conducted at room temperature in white 384-well plates, in assay binding buffer containing 1×LabMed (Cisbio, France), 100 μg/mL saponin, 1% DMSO and 0.02% pluronic acid. Binding of the fluorescently labelled Adenosine receptor antagonist XAC (CA200645, FRET acceptor) to terbium-labelled A1, A2a, A2b and A3 adenosine receptors (FRET donors) was detected by time-resolved FRET due to the close proximity of the donor and acceptor in a binding event. To investigate the ability of unlabelled test compounds to bind to Adenosine A1, A2a, A2b and A3 receptors, dose response curves were constructed that determined the ability of a range of concentrations to inhibit the binding of 30 nM CA200645 to the A2b receptor and 100 nM CA200645 to the A1, A2a, and A3 receptor.
Serial dilution (1:3 dilutions) of test compounds in neat DMSO and transfer of a 400 nL sample of test compound into the assay plate was carried out using the Mosquito (TTP Labtech, UK). The compound samples were incubated for 2 hours at room temperature with a fixed concentration of CA200645 defined for each receptor (see above) and CHO cell membranes containing the human Adenosine A1 (0.5 μg/well), A2a (0.3 μg/well), A2b (1 μg/well) or A3 (1 μg/well) receptor in 40 μL of assay buffer. Total and non-specific binding of CA200645 was determined in the absence and presence of 10 μM XAC, respectively. Following 2 hours incubation, the level of CA200645 binding was detected on a Pherastar FSX (BMG Labtech, Germany) using standard TR-FRET settings. The terbium donor was excited with three laser flashes at a wavelength of 337 nm, and donor and acceptor emission was detected at 620 nm and 665 nm wavelengths, respectively. FRET ratios were obtained by multiplying the acceptor/donor ratio value by 10,000. Specific binding was determined by subtracting the non-specific binding FRET ratio from the total binding FRET ratio. Compound IC50 curves were analysed using GraphPad Prism 7.0 (GraphPad, USA) and Ki affinity values were determined from the obtained IC50 values using the method of Cheng and Prusoff.

[4] = molecular target: T4, human Adenosine A2b receptor (Homo sapiens, UniProt P29275); assay: Adenosine receptor TR-FRET binding assay (CA200645 displacement), A2b; conditions: 30 nM CA200645, CHO cell membranes, 2 hours at room temperature
T4 construct: expressed in transfected cells; host or cells: CHO cell membranes
T4 sequence (P29275 1-332): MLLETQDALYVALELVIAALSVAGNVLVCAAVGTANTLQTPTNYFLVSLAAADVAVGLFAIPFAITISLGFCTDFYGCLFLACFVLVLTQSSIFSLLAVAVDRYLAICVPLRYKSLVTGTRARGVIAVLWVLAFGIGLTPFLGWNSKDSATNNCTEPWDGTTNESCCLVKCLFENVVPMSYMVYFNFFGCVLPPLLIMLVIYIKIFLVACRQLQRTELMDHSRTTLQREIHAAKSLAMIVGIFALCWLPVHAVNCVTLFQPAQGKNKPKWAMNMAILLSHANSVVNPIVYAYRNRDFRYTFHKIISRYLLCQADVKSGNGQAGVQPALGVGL

T3 sequence (P29274 whole entry): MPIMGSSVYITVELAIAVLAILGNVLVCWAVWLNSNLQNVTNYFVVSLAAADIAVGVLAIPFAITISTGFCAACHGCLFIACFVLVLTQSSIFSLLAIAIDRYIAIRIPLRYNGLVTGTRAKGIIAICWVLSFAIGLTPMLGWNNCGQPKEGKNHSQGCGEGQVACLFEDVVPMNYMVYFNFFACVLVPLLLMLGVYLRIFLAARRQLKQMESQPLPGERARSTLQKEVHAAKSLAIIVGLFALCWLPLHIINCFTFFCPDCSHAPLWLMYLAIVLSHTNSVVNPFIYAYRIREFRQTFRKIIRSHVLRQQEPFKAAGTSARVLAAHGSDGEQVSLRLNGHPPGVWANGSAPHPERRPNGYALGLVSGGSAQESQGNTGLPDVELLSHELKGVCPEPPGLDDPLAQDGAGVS

Compound | Ki [1] | Ki [2] | Ki [3] | Ki [4]
Cc1cc(-c2c(-c3cccc(C#N)c3)nn3ccc(C(=O)NC4(C(N)=O)CCNCC4)nc23)cc(Cl)n1 (single isomer, unassigned) [Example 7.17, N-(4-Carbamoyl-4-piperidyl)-3-(2-chloro-6-methyl-4-pyridyl)-2-(3-cyanophenyl)pyrazolo[1,5-a]pyrimidine-5-carboxamide] | > 1000 nM | 279 nM | 16.4 nM | 68 nM
Cc1cc(-c2c(-c3cccc(C#N)c3)nn3ccc(NC(=O)N[C@@H]4CCNC4)nc23)cc(Cl)n1 [Example 31.3, 1-[3-(2-Chloro-6-methyl-4-pyridyl)-2-(3-cyanophenyl)pyrazolo[1,5-a]pyrimidin-5-yl]-3-[(3R)-pyrrolidin-3-yl]urea trifluoroacetate] | > 1000 nM | 151 nM | 4.6 nM | 5 nM
Cc1cc(-c2c(-c3cccc(C#N)c3)nn3ccc(C(=O)NCC4CNCCO4)nc23)cc(Cl)n1 (stereo not shown) [Example 7.11, 3-(2-Chloro-6-methyl-4-pyridyl)-2-(3-cyanophenyl)-N-(morpholin-2-ylmethyl)pyrazolo[1,5-a]pyrimidine-5-carboxamide] | > 1000 nM | 137 nM | 4.9 nM | 3 nM
Cc1cc(-c2c(-c3cccc(C#N)c3)nn3ccc(NCC(C)(C)C(=O)O)nc23)cc(Cl)n1 [Example 2.13] | > 1000 nM | 1390 nM | 71.4 nM | 1310 nM
CCn1nccc1-c1c(-c2cccc(C#N)c2)nn2ccc(NCc3nnc[nH]3)nc12 [Example 33.5] | > 1000 nM | 124 nM | 91.9 nM | 17 nM
Cc1cc(-c2c(-c3cccc(C#N)c3)nn3ccc(C(=O)N4CCNCC4)nc23)cc(Cl)n1 [Example 7.12, 3-[3-(2-Chloro-6-methyl-4-pyridyl)-5-(piperazine-1-carbonyl)pyrazolo[1,5-a]pyrimidin-2-yl]benzonitrile hydrochloride] | > 1000 nM | 459 nM | 44.3 nM | 20 nM
Cc1cc(-c2c(-c3cccc(C#N)c3)nn3ccc(C(=O)NCC4(O)CCC4)nc23)cc(Cl)n1 [Example 6.3, 3-(2-Chloro-6-methyl-4-pyridyl)-2-(3-cyanophenyl)-N-[(1-hydroxycyclobutyl)methyl]pyrazolo[1,5-a]pyrimidine-5-carboxamide] | > 1000 nM | 127 nM | 0.3 nM | 3 nM
Cc1cc(-c2c(-c3cccc(C#N)c3)nn3ccc(N)nc23)cnc1N [Example 26, 3-[5-Amino-3-(6-amino-5-methyl-3-pyridyl)pyrazolo[1,5-a]pyrimidin-2-yl]benzonitrile] | 2430 nM | 6 nM | 147 nM | 409 nM
Cc1cc(-c2c(-c3cccc(C#N)c3)nn3ccc(NC(C)CN(C)C)nc23)cc(Cl)n1 (stereo not shown) [Example 2.30] | > 1000 nM | 450 nM | 15.8 nM | 55 nM
Cc1cc(-c2c(-c3cccc(C#N)c3)nn3ccc(NC4CN5CCC4CC5)nc23)cc(Cl)n1 (stereo not shown) [Example 2.17] | > 1000 nM | 45 nM | 2.4 nM | 6 nM
Cc1cc(-c2c(-c3cccc(C#N)c3)nn3ccc(C(=O)NC[C@@H]4CCC(=O)N4)nc23)cc(C)n1 [Example 92.33] | > 1000 nM | 652 nM | 13 nM | 57 nM
Cc1cc(-c2c(-c3cccc(C#N)c3)nn3ccc(N)nc23)cc(F)n1 [Example 26.4, 3-[5-Amino-3-(2-fluoro-6-methyl-4-pyridyl)pyrazolo[1,5-a]pyrimidin-2-yl]benzonitrile] | 578 nM | 6 nM | 10.1 nM | 16 nM
Cc1cc(-c2c(-c3cccc(C#N)c3)nn3ccc(C(=O)NC4CNC(=O)C4)nc23)cc(C)n1 (stereo not shown) [Example 92.25] | > 1000 nM | 634 nM | 5.4 nM | 69 nM
N#Cc1c(-c2ccco2)nn2ccc(NCCO)nc12 [Example 55.2, 2-(2-furyl)-5-(2-hydroxyethylamino)pyrazolo[1,5-a]pyrimidine-3-carbonitrile] | 4180 nM | 284 nM | 244 nM | 1700 nM
CCn1nccc1-c1c(-c2cccc(C#N)c2)nn2ccc(N)nc12 [Example 1.3] | > 1000 nM | 197 nM | 74.8 nM | 16 nM
Cc1cc(-c2c(-c3cccc(C#N)c3)nn3ccc(C(=O)NC4(C#N)CCNCC4)nc23)cc(Cl)n1 (single isomer, unassigned) [Example 7.16, 3-(2-Chloro-6-methyl-4-pyridyl)-2-(3-cyanophenyl)-N-(4-cyano-4-piperidyl)pyrazolo[1,5-a]pyrimidine-5-carboxamide] | > 1000 nM | 418 nM | 17.7 nM | 54 nM
Cc1cc(-c2c(-c3cccc(C#N)c3)nn3ccc(C(=O)NC[C@H]4CNC(=O)C4)nc23)cc(C)n1 [Example 92.27] | > 1000 nM | 210 nM | 6.6 nM | 16 nM
N#Cc1cccc(-c2nn3ccc(N)nc3c2-c2ccnnc2)c1 [Example 1.2] | 646 nM | 20 nM | 13.9 nM | 29 nM
Cc1cc(-c2c(-c3cccc(C#N)c3)nn3ccc(NCC4CNC(=O)C4)nc23)cc(Cl)n1 (stereo not shown) [Example 2.14] | > 1000 nM | 29 nM | 1.5 nM | 8 nM
N#Cc1c(-c2ccco2)nn2ccc(NCCN3CCN(Cc4ccccc4)CC3)nc12 [Example 37.12] | 923 nM | 319 nM | 310 nM | 1320 nM
N#Cc1c(-c2ccco2)nn2ccc(N3CCN(Cc4ccccc4)CC3)nc12 [Example 43, 5-(4-Benzylpiperazin-1-yl)-2-(2-furyl)pyrazolo[1,5-a]pyrimidine-3-carbonitrile] | > 1000 nM | 278 nM | 16.4 nM | 1860 nM
Cc1cc(-c2c(-c3cccc(C#N)c3)nn3ccc(NC(=O)N[C@H]4CCNC4)nc23)cc(Cl)n1 [Example 31.1, 1-[3-(2-Chloro-6-methyl-4-pyridyl)-2-(3-cyanophenyl)pyrazolo[1,5-a]pyrimidin-5-yl]-3-[(3S)-pyrrolidin-3-yl]urea trifluoroacetate] | > 1000 nM | 200 nM | 10.8 nM | 15 nM
Cc1cc(-c2c(-c3cccc(C#N)c3)nn3ccc(N[C@H]4CCOC4)nc23)cc(Cl)n1 [Example 2.25] | > 1000 nM | 674 nM | 7.5 nM | 27 nM
Cc1cc(-c2c(-c3cccc(C#N)c3)nn3ccc(N4CCNCC4)nc23)cc(Cl)n1 [Example 2.29] | > 1000 nM | 124 nM | 11.8 nM | 21 nM
Cc1cc(-c2c(-c3cccc(C#N)c3)nn3ccc(O[C@@H]4CCNC4)nc23)cc(Cl)n1 [Example 18, 3-[3-(2-Chloro-6-methyl-4-pyridyl)-5-[(3R)-pyrrolidin-3-yl]oxy-pyrazolo[1,5-a]pyrimidin-2-yl]benzonitrile formate] | > 1000 nM | 54 nM | 9.7 nM | 16 nM
Cc1cc(-c2c(-c3cccc(C#N)c3)nn3ccc(N[C@H](C)[C@H](O)CO)nc23)cc(Cl)n1 [Example 4.8, 3-[3-(2-Chloro-6-methyl-4-pyridyl)-5-[[(1R,2S)-2,3-dihydroxy-1-methyl-propyl]amino]pyrazolo[1,5-a]pyrimidin-2-yl]benzonitrile] | > 1000 nM | 7 nM | 0.5 nM | 6 nM
Cc1cc(-c2c(-c3cccc(C#N)c3)nn3ccc(O[C@@H]4CCCNC4)nc23)cc(Cl)n1 [Example 24.1, 3-[3-(2-Chloro-6-methyl-4-pyridyl)-5-[[(3R)-3-piperidyl]oxy]pyrazolo[1,5-a]pyrimidin-2-yl]benzonitrile] | 1650 nM | 9 nM | 3.3 nM | 29 nM
Cc1cc(-c2c(-c3cccc(C#N)c3)nn3ccc(C(=O)NC[C@H]4CCC(=O)N4)nc23)cc(C)n1 [Example 92.9] | > 1000 nM | 150 nM | 1 nM | 26 nM
